Patent publication US9963467B2, “Boronic acid derivatives and therapeutic uses thereof” (Rempex Pharmaceuticals, Inc., priority 2014, dated 2018)

Assays:
[1] = Serum stability of prodrugs, human serum; assay type: in vitro ADME; settings: for Measured Initial Conc. in Serum: 37 degrees; for Measured Initial Conc. in Serum / Conc. at t = 2 h / Conc. at t = 4 h: theoretical initial conc. 40 ug/mL
Procedure: (§1) Prodrug strategy is one of the ways to achieve or increase oral bioavailability for therapeutic drugs. […] After a prodrug molecule is absorbed into systemic circulation, it should be hydrolyzed in the blood in order to release the active form. Hydrolysis of several prodrugs by rat and human serum were evaluated.
(§2) For all stability experiments the test compounds were treated with rat or human serum in Eppendorf tubes. Typically, 992 μl of serum was prewarmed at 37 degrees for 2 minutes and then 8 μl of a compound (at 5 mg/ml, 125×) was added to it to get a final concentration of […] and immediately mixed. Alternatively, serum stability might be tested at 1 mg/ml. […] After vortexing for 30 seconds, the tube was centrifuged in a microcentrifuge for 10 minutes at 15K rpm. Next, 100 μl of the supernatant was combined with 600 μl of water and injected on LC-MS using 0.1% formic acid in water for mobile phase A and 0.1% formic acid in methanol for mobile phase B on an ACE 5 C18 2.1×100 mm column with a 10 μL injection. The flow rate and gradient were adjusted as needed to give the desired resolution and run time. The pH of the mobile phase was adjusted if needed to improve the chromatography.
(§3) The time course of both the disappearance of a prodrug and the appearance of the active form of that prodrug is presented in Table 6 and Table 7. The active metabolites for all of the listed prodrugs are corresponding parent drugs

[2] = Serum stability of prodrugs, rat serum; assay type: in vitro ADME; settings: for Measured Initial Conc. in Serum: 37 degrees
Procedure: as §1, §2, §3

[3] = Serum stability of prodrugs, human serum; assay type: in vitro ADME; settings: theoretical initial conc. 20 ug/mL
[4] = target: OXA-48 (Klebsiella pneumoniae, UniProt Q6XEC0); experiment: Ki, nitrocefin cleavage by purified enzyme, OXA-48; assay type: biochemical; settings: nitrocefin reporter substrate; read-out: Ki (OXA-48, NCF)
Chain of OXA-48 (Q6XEC0 23-265, looked up, species assumed): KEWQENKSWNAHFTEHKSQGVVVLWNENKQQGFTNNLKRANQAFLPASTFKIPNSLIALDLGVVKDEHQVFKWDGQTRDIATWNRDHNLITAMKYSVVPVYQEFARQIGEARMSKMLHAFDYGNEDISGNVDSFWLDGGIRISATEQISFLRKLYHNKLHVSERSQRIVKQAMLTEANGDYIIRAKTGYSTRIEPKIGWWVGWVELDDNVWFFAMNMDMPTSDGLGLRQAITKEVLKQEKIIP
Procedure: (§4) Purified enzymes were mixed with various concentrations of inhibitors in reaction buffer and incubated for 10 min at room temperature. Nitrocefin was added and substrate cleavage profiles were recorded at 490 nm every 10 sec for 10 min.

[5] = test system: KP1004 (KPC-2); experiment: Biapenem potentiation (MPC@1), KP1004; settings: for BPM MPC1 KP1004 KPC-2: BLI with biapenem at 1 μg/mL
[6] = test system: ec302 (TEM-10); experiment: Aztreonam potentiation (MPC@4), ec302; assay type: cell-based; settings: BLI with aztreonam at 4 μg/mL
[7] = test system: ECL1002; experiment: Tigemonam potentiation (MPC@4), ECL1002; assay type: cell-based; settings: BLI with tigemonam at 4 μg/mL
[8] = test system: KP1086 (OXA-48); experiment: Biapenem potentiation (MPC@1), KP1086; settings: for BPM MPC1 OXA-48 KP1086: BLI with biapenem at 1 μg/mL
[9] = target: Pa AmpC (Pseudomonas aeruginosa, UniProt P24735); experiment: Ki, nitrocefin cleavage by purified enzyme, Pa AmpC; assay type: biochemical; settings: nitrocefin reporter substrate; read-out: Ki (Pa AmpC, NCF)
Chain of Pa AmpC (P24735 27-397): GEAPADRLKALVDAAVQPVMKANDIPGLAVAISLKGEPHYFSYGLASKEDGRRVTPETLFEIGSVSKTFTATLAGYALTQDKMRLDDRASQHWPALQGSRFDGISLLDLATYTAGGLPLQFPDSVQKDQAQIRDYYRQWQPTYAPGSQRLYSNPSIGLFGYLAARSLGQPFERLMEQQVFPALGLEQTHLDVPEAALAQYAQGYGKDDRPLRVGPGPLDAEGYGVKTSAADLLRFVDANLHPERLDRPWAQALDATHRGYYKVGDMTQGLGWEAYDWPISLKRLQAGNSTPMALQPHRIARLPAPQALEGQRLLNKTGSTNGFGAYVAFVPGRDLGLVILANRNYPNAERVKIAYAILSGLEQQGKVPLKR
Procedure: Ki values of inhibition of purified class A, C and D enzymes were determined spectrophotometrically using nitrocefin as reporter substrate. Purified enzymes were mixed with various concentrations of inhibitors in reaction buffer and incubated for 10 min at room temperature. Nitrocefin was added and substrate cleavage profiles were recorded at 490 nm every 10 sec for 10 min. These experiments confirmed that the described compounds are inhibitors with a broad-spectrum of activity towards various β-lactamases.

[10] = target: SHV-12 (Klebsiella pneumoniae, UniProt P0AD64, E235K/G234S/L31Q); experiment: Ki, nitrocefin cleavage by purified enzyme, SHV-12; assay type: biochemical; settings: nitrocefin reporter substrate; read-out: Ki (SHV-12, NCF)
Chain of SHV-12 (P0AD64 22-286 L31Q/G234S/E235K): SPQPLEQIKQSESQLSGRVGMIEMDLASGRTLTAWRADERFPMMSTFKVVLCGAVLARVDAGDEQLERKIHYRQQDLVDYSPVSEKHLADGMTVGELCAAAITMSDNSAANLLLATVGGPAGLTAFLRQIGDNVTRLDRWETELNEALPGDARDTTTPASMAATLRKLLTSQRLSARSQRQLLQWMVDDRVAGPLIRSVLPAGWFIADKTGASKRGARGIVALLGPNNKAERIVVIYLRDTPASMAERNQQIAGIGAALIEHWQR
Procedure: as §4

[11] = test system: KP1009 (CTX-M-15); experiment: Tigemonam potentiation (MPC@4), KP1009; assay type: cell-based; settings: BLI with tigemonam at 4 μg/mL
[12] = test system: ec302 (TEM-10); experiment: Tigemonam potentiation (MPC@4), ec302; assay type: cell-based
[13] = test system: EC1010 (CMY-6); experiment: organism not typed; assay type: cell-based
[14] = test system: ECL1002; experiment: Aztreonam potentiation (MPC@4), ECL1002; assay type: cell-based; settings: BLI with aztreonam at 4 μg/mL
[15] = test system: KP1005 (CTX-M-14); experiment: Tigemonam potentiation (MPC@4), KP1005; assay type: cell-based; settings: BLI with tigemonam at 4 μg/mL
[16] = target: KPC-2 (Klebsiella pneumoniae, UniProt Q9F663); experiment: Ki, nitrocefin cleavage by purified enzyme, KPC-2; assay type: biochemical; settings: nitrocefin reporter substrate; read-out: Ki (KPC-2, NCF)
Chain of KPC-2 (Q9F663 25-293, looked up, species assumed): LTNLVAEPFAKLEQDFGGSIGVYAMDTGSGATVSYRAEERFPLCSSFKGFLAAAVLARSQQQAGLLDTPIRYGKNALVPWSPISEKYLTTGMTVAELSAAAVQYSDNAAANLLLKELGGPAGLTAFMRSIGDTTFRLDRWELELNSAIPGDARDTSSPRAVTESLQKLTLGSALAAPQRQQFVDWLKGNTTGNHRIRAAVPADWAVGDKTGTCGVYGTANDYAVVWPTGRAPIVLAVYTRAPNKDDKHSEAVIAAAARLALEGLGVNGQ
Procedure: as §4

[17] = target: CTX-M-14 (Escherichia coli, UniProt Q9L5C7); experiment: Ki, nitrocefin cleavage by purified enzyme, CTX-M-14; assay type: biochemical; settings: nitrocefin reporter substrate; read-out: Ki (CTX-M-14, NCF)
Chain of CTX-M-14 (Q9L5C7 29-291): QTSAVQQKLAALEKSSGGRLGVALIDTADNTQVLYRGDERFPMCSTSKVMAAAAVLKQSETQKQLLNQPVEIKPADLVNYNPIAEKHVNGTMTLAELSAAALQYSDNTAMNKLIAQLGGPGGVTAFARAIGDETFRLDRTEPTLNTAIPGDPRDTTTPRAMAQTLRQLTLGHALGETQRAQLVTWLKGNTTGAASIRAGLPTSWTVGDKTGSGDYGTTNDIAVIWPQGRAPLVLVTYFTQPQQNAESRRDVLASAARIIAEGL
Procedure: as §4

[18] = test system: EC1010 (CMY-6); experiment: Tigemonam potentiation (MPC@4), EC1010; assay type: cell-based; settings: BLI with tigemonam at 4 μg/mL
[19] = test system: KP1010 (SHV-12); experiment: Tigemonam potentiation (MPC@4), KP1010; assay type: cell-based
[20] = target: P99 (Enterobacter cloacae, UniProt P05364); experiment: Ki, nitrocefin cleavage by purified enzyme, P99; assay type: biochemical; settings: nitrocefin reporter substrate; read-out: Ki (P99, NCF)
Chain of P99 (P05364 21-381): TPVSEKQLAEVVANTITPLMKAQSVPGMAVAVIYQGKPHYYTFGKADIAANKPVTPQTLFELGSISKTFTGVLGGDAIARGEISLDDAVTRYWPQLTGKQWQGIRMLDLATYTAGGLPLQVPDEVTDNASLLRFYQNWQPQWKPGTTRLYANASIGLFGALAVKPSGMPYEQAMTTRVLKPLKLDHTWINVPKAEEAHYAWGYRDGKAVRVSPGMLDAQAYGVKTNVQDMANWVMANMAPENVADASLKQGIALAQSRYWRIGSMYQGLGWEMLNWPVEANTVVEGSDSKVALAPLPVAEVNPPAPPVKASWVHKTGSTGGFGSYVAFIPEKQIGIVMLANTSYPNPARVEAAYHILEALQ
Procedure: as §4

[21] = test system: ec308 (SHV-5); experiment: Tigemonam potentiation (MPC@4), ec308; assay type: cell-based
[22] = prodrug, theoretical initial conc. 20 ug/mL
[23] = theoretical initial conc. 40 ug/mL
[24] = prodrug, theoretical initial conc. 40 ug/mL

Row | Structure (SMILES) | Measured Initial Conc. in Serum ([1]; human serum) | Conc. at t = 2 h ([1]; human serum, prodrug) | Conc. at t = 4 h ([1]; human serum, prodrug) | Measured Initial Conc. in Serum [2, 23] | Conc. at t = 2 h [2, 24] | Conc. at t = 4 h [2, 24] | Ki [4] | BPM MPC1 KP1004 KPC-2 [5] | AZT MPC4 TEM-10 ec302 [6] | TIG MPC4 ECL1002 [7] | BPM MPC1 OXA-48 KP1086 [8] | Ki [9] | Ki [10] | TIG MPC4 CTX-M-15 KP1009 [11] | TIG MPC4 TEM-10 ec302 [12] | AZT MPC4 CMY-6 EC1010 [13] | AZT MPC4 ECL1002 [14] | TIG MPC4 CTX-M-14 KP1005 [15] | Ki [16] | Ki [17] | other results
1 | COc1ccc2c(c1C(=O)OCOC(=O)C(C)C)OB(O)[C@@H](NC(=O)CSC)C2 [Compound 42, 2-methylpropanoyloxymethyl(3R)-2-hydroxy-7-methoxy-3-[(2-methylsulfanylacetyl)amino]-3,4-dihydro-1,2-benzoxaborinine-8-carboxylate] |  |  |  |  |  |  |  |  |  |  |  |  |  |  |  |  |  |  |  |  | Conc. at t = 3 hr ([1]; human serum, prodrug, theoretical initial conc. 20 ug/mL): 16.5 µg/mL; Measured Initial Conc. in Serum ([2]; theoretical initial conc. 20 ug/mL): 24.2 µg/mL; Conc. at t = 1 hr [2, 22]: 14.1 µg/mL; Conc. at t = 3 hr [2, 22]: 5.58 µg/mL; Measured Initial Conc. in Serum ([3]; 37 degrees): 23.4 µg/mL; Conc. at t = 1 hr ([3]; prodrug): 19.5 µg/mL
2 | CCCC(=O)OCOC(=O)c1c(F)ccc2c1OB(O)[C@@H](NC(=O)CSC)C2 [Compound 13, (R)-butyryloxymethyl 7-fluoro-2-hydroxy-3-(2-(methylthio)acetamido)-3,4-dihydro-2H-benzo[e][1,2]oxaborinine-8-carboxylate] | 30.6 µg/mL | 1.56 µg/mL | BQL | 28.1 µg/mL | 9.81 (t = 2 h) ug/mL | BQL |  |  |  |  |  |  |  |  |  |  |  |  |  |  | conversion of prodrug to active metabolite ([1]; serum (Tables 6 and 7), 4 hour experiment): completely converted to active metabolite
3 | COc1ccc2c(c1C(=O)O)OB(O)[C@@H](NC(=O)CSC(F)F)C2 [Compound 25, (R)-3-(2-(difluoromethylthio)acetamido)-2-hydroxy-7-methoxy-3,4-dihydro-2H-benzo[e][1,2]oxaborinine-8-carboxylic acid] |  |  |  |  |  |  | < 1 nM | X (MIC of less than 1 μg/mL) | X (MIC of less than 1 ng/mL) | X (MIC of less than 1 μg/mL) | Z (MIC of greater than 10 μg/mL) | > 10 nM | < 1 nM | X (MIC of less than 1 μg/mL) | Y (key: X: MIC of less than 1 ng/mL; Y: MIC of 1 μg/mL to 10 μg/mL; Z: MIC of greater than 10 μg/mL) | Y (key: X: MIC of less than 1 ng/mL; Y: MIC of 1 μg/mL to 10 μg/mL; Z: MIC of greater than 10 μg/mL) | Y (MIC of 1 μg/mL to 10 μg/mL) | X (MIC of less than 1 μg/mL) | 1 to 10 nM | < 1 nM | TIG MPC4 CMY-6 EC1010 [18]: X (MIC of less than 1 μg/mL); TIG MPC4 SHV-12 KP1010 [19]: X (key: X: MIC of less than 1 μg/mL; Y: MIC of 1 μg/mL to 10 μg/mL; Z: MIC of greater than 10 μg/mL); Ki [20]: 1 to 10 nM; TIG MPC4 SHV-5 ec308 [21]: X (key: X: MIC of less than 1 μg/mL; Y: MIC of 1 μg/mL to 10 μg/mL; Z: MIC of greater than 10 μg/mL)
4 | CSCC(=O)N[C@H]1Cc2ccc(F)c(C(=O)OCOC(=O)OC(C)C)c2OB1O [Compound 15, (R)-(isopropoxycarbonyloxy)methyl 7-fluoro-2-hydroxy-3-(2-(methylthio)acetamido)-3,4-dihydro-2H-benzo[e][1,2]oxaborinine-8-carboxylate] | 33.2 µg/mL | 12.8 µg/mL | 5.32 µg/mL | 30.6 µg/mL | BQL | BQL |  |  |  |  |  |  |  |  |  |  |  |  |  |  | 
5 | COc1ccc2c(c1C(=O)O)OB(O)[C@@H](NC(=O)CC(N)=O)C2 [Compound 27, (R)-3-(3-amino-3-oxopropanamido)-2-hydroxy-7-methoxy-3,4-dihydro-2H-benzo[e][1,2]oxaborinine-8-carboxylic acid] |  |  |  |  |  |  | < 1 nM | X (MIC of less than 1 μg/mL) | Y (MIC of 1 μg/mL to 10 μg/mL) | X (MIC of less than 1 μg/mL) | Y (MIC of 1 μg/mL to 10 μg/mL) | > 10 nM | < 1 nM | X (MIC of less than 1 μg/mL) | Z (key: X: MIC of less than 1 ng/mL; Y: MIC of 1 μg/mL to 10 μg/mL; Z: MIC of greater than 10 μg/mL) | Y (key: X: MIC of less than 1 ng/mL; Y: MIC of 1 μg/mL to 10 μg/mL; Z: MIC of greater than 10 μg/mL) | Y (MIC of 1 μg/mL to 10 μg/mL) | Y (MIC of 1 μg/mL to 10 μg/mL) | > 10 nM | < 1 nM | TIG MPC4 CMY-6 EC1010 [18]: X (MIC of less than 1 μg/mL); TIG MPC4 SHV-12 KP1010 [19]: X (key: X: MIC of less than 1 μg/mL; Y: MIC of 1 μg/mL to 10 μg/mL; Z: MIC of greater than 10 μg/mL); Ki [20]: > 10 nM; TIG MPC4 SHV-5 ec308 [21]: X (key: X: MIC of less than 1 μg/mL; Y: MIC of 1 μg/mL to 10 μg/mL; Z: MIC of greater than 10 μg/mL)
6 | COc1ccc2c(c1C(=O)O)OB(O)[C@@H](NC(=O)CSC1CNC1)C2 [Compound 26, (R)-3-(2-(azetidin-3-ylthio)acetamido)-2-hydroxy-7-methoxy-3,4-dihydro-2H-benzo[e][1,2]oxaborinine-8-carboxylic acid] |  |  |  |  |  |  | 1 to 10 nM | X (MIC of less than 1 μg/mL) | Y (MIC of 1 μg/mL to 10 μg/mL) | X (MIC of less than 1 μg/mL) | Y (MIC of 1 μg/mL to 10 μg/mL) | > 10 nM | < 1 nM | X (MIC of less than 1 μg/mL) | Y (key: X: MIC of less than 1 ng/mL; Y: MIC of 1 μg/mL to 10 μg/mL; Z: MIC of greater than 10 μg/mL) | Y (key: X: MIC of less than 1 ng/mL; Y: MIC of 1 μg/mL to 10 μg/mL; Z: MIC of greater than 10 μg/mL) | Y (MIC of 1 μg/mL to 10 μg/mL) | X (MIC of less than 1 μg/mL) | > 10 nM | < 1 nM | TIG MPC4 CMY-6 EC1010 [18]: X (MIC of less than 1 μg/mL); TIG MPC4 SHV-12 KP1010 [19]: X (key: X: MIC of less than 1 μg/mL; Y: MIC of 1 μg/mL to 10 μg/mL; Z: MIC of greater than 10 μg/mL); Ki [20]: > 10 nM; TIG MPC4 SHV-5 ec308 [21]: X (key: X: MIC of less than 1 μg/mL; Y: MIC of 1 μg/mL to 10 μg/mL; Z: MIC of greater than 10 μg/mL)
7 | CSCC(=O)N[C@H]1Cc2ccc(F)c(C(=O)OCOC(C)=O)c2OB1O [Compound 14, (R)-acetoxymethyl 7-fluoro-2-hydroxy-3-(2-(methylthio)acetamido)-3,4-dihydro-2H-benzo[e][1,2]oxaborinine-8-carboxylate] | 36.8 µg/mL | 5.00 µg/mL | 1.13 µg/mL | 39.6 µg/mL | BQL | BQL |  |  |  |  |  |  |  |  |  |  |  |  |  |  | 
8 | C[C@@H](O)[C@H]1C(=O)N2C(C(=O)[O-])=C(SC3Cn4cnc[n+]4C3)[C@H](C)[C@H]12 (stereo partly drawn) [Biapenem, reference compound] |  |  |  |  |  |  |  |  |  |  |  |  |  |  |  |  |  |  |  |  | MIC ([5]; read-out: Biapenem MIC KP1004): > 10 mg/L; MIC ([8]; read-out: Biapenem MIC KP1086): > 10 mg/L
